According to publication doi:10.1101/2023.12.04.569845, “Identification of 4-(6-((2-methoxyphenyl)amino)pyrazin-2-yl)benzoic acids as CSNK2A inhibitors with antiviral activity and improved selectivity over PIM3” (bioRxiv, 2023):
Like-named read-outs stand apart in the source and are kept apart here. Each block holds one compound with its values, some of them ahead of it.

Key:
Test in all cases: biochemical
Set-up in all cases: Thermal shift (DSF, SYPRO Orange) Tm shift of recombinant kinase domains at 10 uM compound
MAP3K5 = biological target: T1, MAP3K5 (Homo sapiens, UniProt Q99683)
T1 sequence (Q99683 1-1374): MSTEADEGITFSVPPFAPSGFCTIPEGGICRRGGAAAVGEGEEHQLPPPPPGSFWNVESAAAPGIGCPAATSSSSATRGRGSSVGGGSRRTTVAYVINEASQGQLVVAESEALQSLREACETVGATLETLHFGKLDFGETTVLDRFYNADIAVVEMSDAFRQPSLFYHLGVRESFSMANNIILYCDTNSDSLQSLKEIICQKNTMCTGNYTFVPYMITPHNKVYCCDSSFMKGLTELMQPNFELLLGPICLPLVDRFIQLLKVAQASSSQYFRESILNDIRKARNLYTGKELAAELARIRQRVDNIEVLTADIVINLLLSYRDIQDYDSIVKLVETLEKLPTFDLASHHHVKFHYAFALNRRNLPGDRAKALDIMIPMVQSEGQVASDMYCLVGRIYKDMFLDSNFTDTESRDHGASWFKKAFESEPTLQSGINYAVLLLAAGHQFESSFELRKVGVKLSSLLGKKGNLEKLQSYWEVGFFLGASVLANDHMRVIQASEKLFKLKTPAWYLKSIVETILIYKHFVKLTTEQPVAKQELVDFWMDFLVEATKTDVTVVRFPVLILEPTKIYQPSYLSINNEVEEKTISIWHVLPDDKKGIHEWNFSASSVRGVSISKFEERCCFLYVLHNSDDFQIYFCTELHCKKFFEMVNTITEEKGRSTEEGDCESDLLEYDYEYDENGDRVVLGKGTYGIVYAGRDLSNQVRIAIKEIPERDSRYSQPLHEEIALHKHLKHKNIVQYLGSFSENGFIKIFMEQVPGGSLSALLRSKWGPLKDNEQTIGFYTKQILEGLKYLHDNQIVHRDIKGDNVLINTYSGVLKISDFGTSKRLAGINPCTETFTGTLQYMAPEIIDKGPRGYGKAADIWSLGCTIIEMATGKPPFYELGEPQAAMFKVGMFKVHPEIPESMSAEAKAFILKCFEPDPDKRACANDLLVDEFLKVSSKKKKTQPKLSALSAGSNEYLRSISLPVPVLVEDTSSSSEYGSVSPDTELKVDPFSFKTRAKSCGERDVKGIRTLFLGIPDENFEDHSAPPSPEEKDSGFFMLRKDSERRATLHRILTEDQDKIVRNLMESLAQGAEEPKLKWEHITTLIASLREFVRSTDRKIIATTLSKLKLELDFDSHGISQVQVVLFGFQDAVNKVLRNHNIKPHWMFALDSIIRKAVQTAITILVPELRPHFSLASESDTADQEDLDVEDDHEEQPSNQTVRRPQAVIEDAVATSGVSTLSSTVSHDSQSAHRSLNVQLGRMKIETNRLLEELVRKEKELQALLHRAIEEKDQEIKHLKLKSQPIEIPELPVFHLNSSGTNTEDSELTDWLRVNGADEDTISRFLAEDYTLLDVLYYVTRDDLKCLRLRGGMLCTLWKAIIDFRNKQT
Procedure: (§1) S23 Thermal stability kinase selectivity. The assay was performed as previously described. 9,10 Briefly, recombinant protein kinase domains at a concentration of 2 μM were mixed with 10 μM compound in a buffer containing 20 mM HEPES, pH 7.5, and 500 mM NaCl. SYPRO Orange (5000×, Invitrogen) was added as a fluorescence probe (1 µl per mL). Subsequently, temperature-dependent protein unfolding profiles were measured using the QuantStudio™ 5 realtime PCR machine (Thermo Fisher). […] The temperature was raised with a step rate of 3°C per minute. Data points were analysed with the internal software (Thermal Shift SoftwareTM Version 1.4, Thermo Fisher) using the Boltzmann equation to determine the inflection point of the transition curve.

PAK4 = PAK4 (Homo sapiens, UniProt O96013)
Procedure: as §1

ULK1 = biological target: T2, ULK1 (Homo sapiens, UniProt O75385)
T2 sequence (O75385 1-1050): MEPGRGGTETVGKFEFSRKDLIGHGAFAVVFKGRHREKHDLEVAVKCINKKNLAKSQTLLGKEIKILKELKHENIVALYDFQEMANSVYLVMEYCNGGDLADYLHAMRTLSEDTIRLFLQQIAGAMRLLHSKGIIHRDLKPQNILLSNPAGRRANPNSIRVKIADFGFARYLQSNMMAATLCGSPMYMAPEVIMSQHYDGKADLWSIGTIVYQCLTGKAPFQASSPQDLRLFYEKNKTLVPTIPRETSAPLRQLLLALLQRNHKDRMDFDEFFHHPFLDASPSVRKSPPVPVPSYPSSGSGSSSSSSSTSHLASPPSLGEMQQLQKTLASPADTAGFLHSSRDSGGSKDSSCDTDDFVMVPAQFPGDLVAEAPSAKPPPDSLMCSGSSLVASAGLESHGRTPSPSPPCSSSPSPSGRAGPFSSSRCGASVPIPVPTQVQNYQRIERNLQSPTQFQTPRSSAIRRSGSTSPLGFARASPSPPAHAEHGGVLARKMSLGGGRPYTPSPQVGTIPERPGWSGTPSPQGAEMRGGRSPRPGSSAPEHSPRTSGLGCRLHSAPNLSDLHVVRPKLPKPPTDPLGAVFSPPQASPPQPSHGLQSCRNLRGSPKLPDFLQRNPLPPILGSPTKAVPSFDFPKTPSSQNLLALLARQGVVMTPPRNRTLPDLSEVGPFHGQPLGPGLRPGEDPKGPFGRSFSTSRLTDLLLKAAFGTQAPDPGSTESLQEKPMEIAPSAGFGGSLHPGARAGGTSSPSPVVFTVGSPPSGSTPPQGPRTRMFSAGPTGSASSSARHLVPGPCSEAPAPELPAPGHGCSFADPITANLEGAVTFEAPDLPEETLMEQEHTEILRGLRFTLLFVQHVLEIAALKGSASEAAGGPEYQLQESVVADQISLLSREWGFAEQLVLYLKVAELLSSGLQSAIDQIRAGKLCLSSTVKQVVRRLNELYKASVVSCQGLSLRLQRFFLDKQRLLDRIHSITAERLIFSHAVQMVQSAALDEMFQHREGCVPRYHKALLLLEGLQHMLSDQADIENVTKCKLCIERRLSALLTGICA
Procedure: as §1

PAK4, sequence (O96013 whole entry): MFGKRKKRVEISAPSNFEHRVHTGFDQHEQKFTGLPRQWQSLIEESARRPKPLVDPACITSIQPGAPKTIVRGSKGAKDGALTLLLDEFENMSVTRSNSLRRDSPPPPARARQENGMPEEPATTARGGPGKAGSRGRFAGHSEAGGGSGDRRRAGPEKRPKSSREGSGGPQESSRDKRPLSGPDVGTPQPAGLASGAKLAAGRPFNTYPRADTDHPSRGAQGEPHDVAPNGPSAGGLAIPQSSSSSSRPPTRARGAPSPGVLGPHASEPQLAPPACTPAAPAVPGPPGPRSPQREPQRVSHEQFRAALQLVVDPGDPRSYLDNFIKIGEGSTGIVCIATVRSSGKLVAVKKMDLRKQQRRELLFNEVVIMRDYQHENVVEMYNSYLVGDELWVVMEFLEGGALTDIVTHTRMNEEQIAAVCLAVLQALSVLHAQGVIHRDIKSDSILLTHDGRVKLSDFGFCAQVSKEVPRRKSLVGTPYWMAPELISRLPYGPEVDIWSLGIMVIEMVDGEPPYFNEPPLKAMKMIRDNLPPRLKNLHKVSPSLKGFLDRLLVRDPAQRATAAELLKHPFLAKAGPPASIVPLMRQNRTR

ΔTm at 10 µM (MAP3K5; read-out: 6c): 3 °C
ΔTm at 10 µM (PAK4; read-out: 6c): 3 °C
ΔTm at 10 µM (ULK1; read-out: 6c): 2 °C
SMILES: CC(C)Oc1ccc2ccn(-c3cncc(-c4ccc(C(=O)O)cc4)n3)c2c1 [6c]

ΔTm at 10 µM (MAP3K5; read-out: 7c): 1 °C
ΔTm at 10 µM (PAK4; read-out: 7c): 1 °C
ΔTm at 10 µM (ULK1; read-out: 7c): 1 °C
SMILES: COc1ccc(OC(C)C)cc1Nc1cncc(-c2ccc(C(=O)O)cc2)n1 [7c]

ΔTm at 10 µM (MAP3K5; read-out: 2): 5 °C
ΔTm at 10 µM (PAK4; read-out: 2): 3 °C
ΔTm at 10 µM (ULK1; read-out: 2): 3 °C
SMILES: CC(C)Nc1ccc2cnn(-c3cncc(-c4ccc(C(=O)O)cc4)n3)c2c1 [compound 2, 2]
